5 molecules from PubChem BioAssay (NCI) can be followed below.

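Compound exposure: 48 hours, 5 concentrations, 96-well plates. GI50: concentration for 50% inhibition of growth. Definition used: TGI = concentration required for complete inhibition of growth.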 Where only a bound is given, the exact number is not on record here.

What all share (experiment): NCI anticancer screen, dose series, 48 h
The test system of assay [1] is RXF 393 renal.
For assay [2], the system named is SNB-19 CNS.
Assay [3] deals with SK-MEL-5 melanoma.
Assay [4] relates to MALME-3M melanoma.
The subject of assay [5] is HCT-116 colon.
Assay [6] relates to EKVX NSCLC.
Assay [7] has as its system RPMI-8226 leukemia.
Assay [8] deals with SK-OV-3 ovarian.
The subject of assay [9] is HOP-92 NSCLC.
Assay [10] has as its system HL-60(TB) leukemia.

For `O=C(CSc1nc2ccccc2nc1-c1ccccc1)Nc1ccc(F)cc1`, the GI50 in assay [1] is 18.6 µM; in assay [2] it was 34.5 µM; in assay [3], 16.5 µM; in assay [4] it was 17.1 µM; in assay [5] it was 14.1 µM; in assay [6], 75 µM. The GI50 was 58.5 µM in [7], 35 µM in assay [8], 20.3 µM in assay [9] and 66.9 µM in assay [10]. The TGI in [1] was 68.5 µM; in assay [2], > 100 µM; in assay [3], 54.8 µM; in assay [4], 54 µM; in [5], 28.7 µM; in assay [6], > 100 µM. The TGI is > 100 µM in assay [7], > 100 µM in assay [8], 58.1 µM in assay [9] and > 100 µM in assay [10].
Consider `CN1CCOC(c2ccccc2)O1` (stereo not given), for which the TGI in assay [1], in [2], in assay [3], in assay [4], in assay [5] and in [6] was > 100 µM throughout. Moreover, the TGI in [7], in [8], in assay [9] and in assay [10] was > 100 µM each time.
With `Oc1cccnc1[Se]`, the TGI in [1] is > 100 µM; in [2], > 100 µM; in assay [3], > 100 µM; in assay [4], > 100 µM; in assay [5], > 100 µM; in [6] it was 80.2 µM. The TGI in assay [7], in assay [8], in [9] and in [10] was > 100 µM throughout.
For the molecule `Cc1ccc(NC(=O)CCc2cc(C(C)(C)C)nc(=S)[nH]2)cc1C`, the TGI in [1], in assay [2], in assay [3], in assay [4], in assay [5] and in [6] was > 100 µM throughout. In addition, the TGI in assay [7], in [8], in assay [9] and in assay [10] was > 100 µM each time.
For the molecule `COc1ccc(-c2nc3ccc(-c4nc5ccc(N6CCN(c7ccccc7)CC6)cc5[nH]4)cc3[nH]2)cc1OC`, the GI50 in assay [1] was 1.59 µM; in assay [2] it was 1.93 µM; in assay [3], 1.47 µM; in assay [4], 1.05 µM; in assay [5] it was 0.281 µM; in assay [6] it was 2.29 µM. The GI50 in assay [7] was 0.19 µM; in assay [8], 5.34 µM; in assay [9], 1.28 µM; in assay [10] it was 1.78 µM. In addition, the TGI in [1] was 3.41 µM; in [2], 3.59 µM; in assay [3], 3.31 µM; in assay [4] it was 2.52 µM; in [5] it was 1.11 µM; in assay [6], 5.07 µM. Besides, the TGI in [7] came to 2.3 µM; in assay [8], 18.6 µM; in assay [9] it was 4 µM; in assay [10] it was 10.2 µM.
